Results on one molecule are retold here after patent US7557109B2, “Treatment for attention-deficit hyperactivity disorder” (priority 2001, dated 2009).

By Ki is commonly meant the dissociation constant of the complex between target and ligand, obtained from inhibition or displacement.

Each structure is given as a SMILES string.

One series relates to wild-type mice. Briefly: Open-field locomotor activity, wild-type littermates. In kind it is in vivo. From the text:
Heterozygote coloboma mice were originally purchased from The Jackson Laboratory (Bar Harbor, Me.) and were bred and maintained in our colony. In the current study, 20 mutant mice and 25 wild-type littermates, all aged 8 to 10 weeks, were used. Animals were divided into 4 groups: mutant/drug-treatment (n=11), mutant/vehicle-control (n=9), wild-type/drug-treatment (n=13), wild-type/vehicle-control (n=12). Age and gender were balanced among groups. All animals were housed as littermates (2-4 mice per cage) and were maintained on ad libitum food and water with a 12 hr light/dark cycle.
Open-field testing was performed under normal lighting conditions. Mice were brought into the experimental room and allowed at least 1 hr of acclimatization. Thirty minutes prior to testing, animals received an ip. injection of either d-amphetamine (4 mg/kg), eltoprazine (0.5 mg/kg) or saline. The mice were then placed in the activity monitor arenas (27×27×20 cm, Med Associates). Four animals of matching genotype and treatment were tested at one time. Each testing session lasted 40 minutes, after which animals were returned to their home cages. An automated infrared beam array system measured locomotor activity (total distance traveled) and number of center entries (zone crossings).

Another series has as its system C3H mice. The experiment in a line: Peak procedure (30 second reinforcement interval), C3H mice. In kind it is in vivo. The method, then: The peak procedure is a behavioral model designed to assess an animal's ability to learn an appropriate time period in which to perform a task and a time period in which the animal will be rewarded if the task is performed. The model provides information concerning excitatory and inhibitory components of behavior, as subjects must respond to perform a task when appropriate and stop responding in an “empty trial” when time for reward has elapsed and the reward has not been delivered. The task is sensitive to conditions where there is a failure in inhibitory mechanisms, such as seems to be the case for ADHD (Pliszka et al., Biol. Psychiatry, 48:238-46, 2000).
In the peak procedure, mice are trained to work for food that is delivered at the same time in each trial, but withdrawn in some unreinforced trials. Typically, the response rate increases up to a maximum around the reinforcement time, and then decreases to a low toward the end of the trial. The shape of the response rate indicates whether the animal is sensitive to the time of reinforcement. To be able to perform well in this model, the animals need to be able to learn several tasks. First, the animal must make an association between a response (lever pressing, nose poking or key pecking) and the delivery of reward. Second, the animal must be able to perceive and remember time. Third, the animal must act on its remembered time by starting and then stopping or inhibiting the response. Fourth, the animal must be able to compare the elapsed time in the trials with its remembered time to reinforcement. […] Accuracy is measured by looking at the shape of the response function; therefore, if the response function is sharper and centered on the reinforcement time it supports a conclusion that attentional processes have been heightened.
Mice were food deprived to 85-90% of their free-feeding body weight by supplementing food earned during experimental sessions with a measured amount after the session had ended. […]

In a further series the target is dopamine receptors. As to conditions: read-out: Ki, affinity for dopamine receptors; cited from earlier work.
Another series relates to 5-HT receptor subtypes. As to conditions: cited from earlier work.
For series [1] the following is noted: broad range of doses; cited from earlier work.

With `c1cc2c(c(N3CCNCC3)c1)OCCO2` [eltoprazine, 1-(2,3-dihydro-1,4-benzodioxanyl-5-yl) piperazine], the “locomotor activity (distance traveled or zones crossed)” value in the series on wild-type mice (0.5 mg/kg i.p.) was “did not influence the locomotor activity”. The “exploratory preference (center vs periphery of arena)” value in the series with wild-type mice (0.5 mg/kg i.p. (FIG. 6A, 6B)) was “no effect on exploratory preference”. The rearing behavior result with wild-type mice (0.5 mg/kg i.p. vs saline (FIG. 6C, 6D)) is given as “same pattern of rearing behavior”. The “relative response rate curve in peak trials” value is “cognitive enhancement was observed” in the series on C3H mice (0.1 and 0.9 mg/kg (FIG. 3)); “flatter than the saline curve” in the series with C3H mice (1, 2 and 4 mg/kg (FIGS. 2A-C)). The Ki at dopamine receptors was above 1000 nM. The “affinity for the 5-HT1A, 5-HT1B, and 5-HT2C receptors” value in the series on 5-HT receptor subtypes is “roughly equipotent affinity”. For the same molecule, in the series with 5-HT receptor subtypes (compared with serotonin), the “affinity for the 5-HT1D receptor” value is given as “relatively low affinity”. Also, the “overall safety and tolerance” value in series [1] was “good”.
